Measurements: BindingDB's records for PubMed 32066009 (Hefei University of Technology, 2020)

Tests used:
Prothrombin = Prothrombin (Homo sapiens, UniProt P00734); test: Inhibition of thrombin (unknown origin)
Coagulation factor X = Coagulation factor X (Homo sapiens, UniProt P00742); test: Inhibition of human fXA by fluorescence based analysis
Coagulation factor XII = molecular target: T1, Coagulation factor XII (Homo sapiens, UniProt P00748); test: Inhibition of human fXIIA by fluorescence based analysis
T1 sequence (P00748 whole entry): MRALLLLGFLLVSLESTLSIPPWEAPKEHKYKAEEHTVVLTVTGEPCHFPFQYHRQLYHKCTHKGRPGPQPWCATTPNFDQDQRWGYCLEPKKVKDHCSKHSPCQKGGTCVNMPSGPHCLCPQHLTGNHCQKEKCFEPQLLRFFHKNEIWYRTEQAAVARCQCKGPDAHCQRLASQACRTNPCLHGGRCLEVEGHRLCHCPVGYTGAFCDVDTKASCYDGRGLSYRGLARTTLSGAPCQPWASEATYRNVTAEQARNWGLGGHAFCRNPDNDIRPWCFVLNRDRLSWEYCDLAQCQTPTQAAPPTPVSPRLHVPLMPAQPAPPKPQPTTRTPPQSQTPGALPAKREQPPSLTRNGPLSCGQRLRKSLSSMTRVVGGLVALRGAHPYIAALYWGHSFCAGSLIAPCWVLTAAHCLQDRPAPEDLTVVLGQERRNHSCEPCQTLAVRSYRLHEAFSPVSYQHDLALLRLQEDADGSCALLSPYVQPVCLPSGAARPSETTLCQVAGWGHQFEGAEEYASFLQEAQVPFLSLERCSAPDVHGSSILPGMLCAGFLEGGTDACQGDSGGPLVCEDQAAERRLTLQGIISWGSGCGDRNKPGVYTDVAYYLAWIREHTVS

Sequence of Coagulation factor X (P00742 41-179 limits assumed): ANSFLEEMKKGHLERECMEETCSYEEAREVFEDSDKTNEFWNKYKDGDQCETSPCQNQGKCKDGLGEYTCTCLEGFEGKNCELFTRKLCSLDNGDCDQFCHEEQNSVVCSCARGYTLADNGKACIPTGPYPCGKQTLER
Sequence of Coagulation factor X (P00742 235-488 limits assumed): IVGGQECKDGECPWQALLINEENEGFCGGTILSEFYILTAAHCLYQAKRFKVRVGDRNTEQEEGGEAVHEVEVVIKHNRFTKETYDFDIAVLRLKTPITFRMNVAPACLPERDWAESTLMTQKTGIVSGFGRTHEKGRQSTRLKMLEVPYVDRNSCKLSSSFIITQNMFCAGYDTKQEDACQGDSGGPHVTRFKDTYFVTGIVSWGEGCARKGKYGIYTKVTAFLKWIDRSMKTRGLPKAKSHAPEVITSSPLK

Row | IC50 (Prothrombin) [µM] | SMILES | IC50 (Coagulation factor X) [µM] | IC50 (Coagulation factor XII) [µM]
1 | > 1000 | NCC1CCC(C(=O)N[C@@H](Cc2ccccc2)C(=O)Nc2ccc(CC(=O)O)cc2)CC1 (some centres undefined) |  | 
2 | > 1000 | CC(=O)c1ccc(NC(=O)[C@H](Cc2ccccc2)NC(=O)C2CCC(CN)CC2)cc1 (some centres undefined) |  | 
3 |  | CCOc1ccc(C[C@@H](NC(=O)c2ccccc2)C(=O)N[C@@H](Cc2ccccc2)C(=O)NCc2ccc(CN)cc2)cc1 [US9234000, 3] | > 10 | > 10
